# Results as given in patent US3974140A, “Ureidoacetamido-penicillins” (Bayer Aktiengesellschaft, priority 1970, dated 1976).
# Legend:
# Assay in all cases: MIC, liquid medium test tube series dilution test
# Psdm. aerug. Walter = assay type: cell-based, Pseudomonas aerug.; details: 24 hours, 37°C
# How it was run: (§1)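 Read-out: visual turbidity after 24 h at 37°C. The MIC, in units/ml, corresponds to the non-turbid tube in a liquid-medium test tube dilution series prepared in complete nutrient medium.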
# Psdm. aerug. Bonn = assay type: cell-based, Pseudomonas aerug.; details: 24 hours, 37°C
# How it was run: as §1
# E. coli 183/58 = assay type: cell-based; details: E. coli 183/58, 24 hours, 37°C
# How it was run: as §1
# Klebsiella 63 = assay type: cell-based; details: Klebsiella 63, 24 hours, 37°C
# How it was run: as §1
# E. coli 14 = assay type: cell-based; details: E. coli 14, 24 hours, 37°C
# How it was run: as §1
# E. coli C 165 = assay type: cell-based; details: E. coli C 165, 24 hours, 37°C
# How it was run: as §1
# [1] = test system: Streptoc. faec. ATCC 9790; assay type: cell-based; details: Strep. faec. (Enterococcus) ATCC 9790, 24 hours, 37°C
# How it was run: as §1
# Klebsiella K 10 = assay type: cell-based; details: Klebsiella K 10, 24 hours, 37°C
# How it was run: as §1
# E. coli A 261 = assay type: cell-based; details: E. coli A 261, 24 hours, 37°C
# How it was run: as §1
# Proteus vulg. 3400 = assay type: cell-based, Proteus vulgaris; details: Proteus vulg. 3400, 24 hours, 37°C
# How it was run: as §1
# Proteus vulg. 1017 = assay type: cell-based, Proteus vulgaris; details: Proteus vulg. 1017, 24 hours, 37°C
# How it was run: as §1
# Staph. aureus 1777 E = assay type: cell-based, Staphylococcus aureus; details: 24 hours, 37°C
# How it was run: as §1
# Staph. aureus 133 = assay type: cell-based, Staphylococcus aureus; details: Staph. aureus 133, 24 hours, 37°C
# How it was run: as §1
SMILES,MIC (E. coli A 261),MIC (Staph. aureus 1777 E),MIC [1],MIC (Staph. aureus 133),MIC (Psdm. aerug. Walter),MIC (Psdm. aerug. Bonn),MIC (E. coli 183/58),MIC (Klebsiella 63),MIC (E. coli 14),MIC (E. coli C 165),MIC (Klebsiella K 10),MIC (Proteus vulg. 3400),MIC (Proteus vulg. 1017),also measured
COC(=O)N(C)C(=O)N[C@@H](C(=O)N[C@@H]1C(=O)N2[C@@H]1SC(C)(C)[C@@H]2C(=O)O)c1ccccc1 [Example 10 B],> 400 units/ml,400 units/ml,–,–,–,–,–,–,–,–,–,–,–,MIC (Psdm. aerug. Walter; listed as 10 B): 200 units/ml; MIC (Psdm. aerug. Walter; listed as (A) of Example 10): 50 units/ml; MIC (Psdm. aerug. Bonn; listed as 10 B): 200 units/ml; MIC (Psdm. aerug. Bonn; listed as (A) of Example 10): 50 units/ml; MIC (E. coli 183/58; listed as 10 B): 50 units/ml; MIC (E. coli 183/58; listed as (A) of Example 10): 50 units/ml; MIC (Klebsiella 63; listed as 10 B): 50 units/ml; MIC (Klebsiella 63; listed as (A) of Example 10): 200 units/ml; MIC (E. coli 14; listed as 10 B): 12.5 units/ml; MIC (E. coli 14; listed as (A) of Example 10): 12.5 units/ml; MIC (E. coli C 165; listed as 10 B): 50 units/ml; MIC ([1]; listed as 10 B): 100 units/ml; MIC (Klebsiella K 10; listed as 10 B): 50 units/ml; MIC (Klebsiella K 10; listed as (A) of Example 10): 200 units/ml; MIC (Proteus vulg. 3400; listed as 10 B): 200 units/ml; MIC (Proteus vulg. 1017; listed as 10 B): 200 units/ml; MIC (Staph. aureus 133; listed as 10 B): 1.6 units/ml; MIC (Staph. aureus 133; listed as (A) of Example 10): 1.56 units/ml
"CC(C)OC(=O)N(C)C(=O)N[C@@H](C(=O)N[C@@H]1C(=O)N2[C@@H]1SC(C)(C)[C@@H]2C(=O)O)c1ccccc1 [Example 11 C, Sodium D(-)-α-(3-isopropoxycarbonyl-3-methyl-ureido)-benzyl-penicillin]",> 400 units/ml,400 units/ml,200 units/ml,1.6 units/ml,–,–,–,–,–,–,–,–,–,MIC (Psdm. aerug. Walter; listed as 11 C): 200 units/ml; MIC (Psdm. aerug. Walter; listed as (A) of Example 11): 100 units/ml; MIC (Psdm. aerug. Bonn; listed as 11 C): 400 units/ml; MIC (Psdm. aerug. Bonn; listed as (A) of Example 11): 50 units/ml; MIC (E. coli 183/58; listed as 11 C): 12.5 units/ml; MIC (E. coli 183/58; listed as (A) of Example 11): 12.5 units/ml; MIC (Klebsiella 63; listed as 11 C): 100 units/ml; MIC (E. coli 14; listed as 11 C): 6.3 units/ml; MIC (E. coli 14; listed as (A) of Example 11): 6.25 units/ml; MIC (E. coli C 165; listed as 11 C): 50 units/ml; MIC (E. coli C 165; listed as (A) of Example 11): 50 units/ml; MIC (Klebsiella K 10; listed as 11 C): 50 units/ml; MIC (Proteus vulg. 3400; listed as 11 C): 100 units/ml; MIC (Proteus vulg. 1017; listed as 11 C): 100 units/ml
"CCCCOC(=O)N(C)C(=O)N[C@@H](C(=O)N[C@@H]1C(=O)N2[C@@H]1SC(C)(C)[C@@H]2C(=O)O)c1ccccc1 [Example 12, Sodium D(-)-α-(3-n-butoxycarbonyl-3-methyl-ureido)-benzylpenicillin]",> 400 units/ml,400 units/ml,200 units/ml,1.6 units/ml,200 units/ml,400 units/ml,12.5 units/ml,100 units/ml,6.3 units/ml,50 units/ml,50 units/ml,100 units/ml,100 units/ml,–
"Cc1ccc(C(NC(=O)N2CCNC2=O)C(=O)N[C@@H]2C(=O)N3[C@@H]2SC(C)(C)[C@@H]3C(=O)O)cc1 (stereo partly drawn) [Example 45, Sodium α-[(imidazolidin-2-on-1-yl)-carbonylamino]-p-methylbenzylpenicillin]",> 400 units/ml,400 units/ml,50 units/ml,"< 0,78 units/ml","12,5 units/ml",25 units/ml,"6,25 units/ml",100 units/ml,"6,25 units/ml",25 units/ml,100 units/ml,100 units/ml,100 units/ml,–
"Cc1ccc(C(NC(=O)N2CCNC2=O)C(=O)N[C@@H]2C(=O)N3[C@@H]2SC(C)(C)[C@@H]3C(=O)O)cc1 (stereo partly drawn) [Example 46, Sodium α-[(imidazolidin-2-on-1-yl)-carbonylamino]-p-methylbenzylpenicillin]",> 400 units/ml,200 units/ml,50 units/ml,"1,56 units/ml",25 units/ml,25 units/ml,"12,5 units/ml",50 units/ml,"6,25 units/ml",50 units/ml,100 units/ml,50 units/ml,25 units/ml,–
"CC1(C)S[C@@H]2[C@H](NC(=O)C(NC(=O)N3CCNC3=O)c3ccc(Cl)cc3)C(=O)N2[C@H]1C(=O)O (stereo partly drawn) [Example 47, Sodium α-[(imidazolidin-2-on-1-yl)-carbonylamino]-p-chloro benzylpenicillin]",> 400 units/ml,200 units/ml,50 units/ml,"< 0,78 units/ml","12,5 units/ml","12,5 units/ml","6,25 units/ml",50 units/ml,"3,12 units/ml",25 units/ml,100 units/ml,100 units/ml,50 units/ml,–
"CC1(C)S[C@@H]2[C@H](NC(=O)[C@H](NC(=O)N3CCNC3=O)c3ccccc3)C(=O)N2[C@H]1C(=O)O [Example 51, Sodium D(-)-α-[(imidazolidin-2-on-1-yl)-carbonylamino]-benzylpenicillin]",400 units/ml,400 units/ml,25 units/ml,"< 0,78 units/ml","12,5 units/ml","12,5 units/ml","12,5 units/ml",50 units/ml,"3,12 units/ml","12,5 units/ml",100 units/ml,25 units/ml,25 units/ml,–
"CC1(C)S[C@@H]2[C@H](NC(=O)[C@H](NC(=O)N3CCNC3=O)c3ccccc3)C(=O)N2[C@H]1C(=O)O [Example 53, D(-)-α-[(Imidazolidin-2-on-1-yl)-carbonylamino]-benzylpenicillin]",400 units/ml,200 units/ml,"12,5 units/ml","< 0,78 units/ml","12,5 units/ml","6,25 units/ml","12,5 units/ml",25 units/ml,"3,12 units/ml","6,25 units/ml",50 units/ml,"12,5 units/ml","6,25 units/ml",–
"CSc1ccc(C(NC(=O)N2CCNC2=O)C(=O)N[C@@H]2C(=O)N3[C@@H]2SC(C)(C)[C@@H]3C(=O)O)cc1 (stereo partly drawn) [Example 54, Sodium α-[(imidazolidin-2-on-1-yl)-carbonylamino]-4-methylthiobenzylpenicillin]",> 400 units/ml,200 units/ml,50 units/ml,"< 0,78 units/ml",25 units/ml,"12,5 units/ml","6,25 units/ml",100 units/ml,"6,25 units/ml",25 units/ml,100 units/ml,100 units/ml,200 units/ml,–
"CSc1ccc(C(NC(=O)N2CCNC2=O)C(=O)N[C@@H]2C(=O)N3[C@@H]2SC(C)(C)[C@@H]3C(=O)O)cc1 (stereo partly drawn) [Example 55, Sodium α-[(imidazolidin-2-on-1-yl)-carbonylamino]-4-methylthiobenzylpenicillin]",> 400 units/ml,200 units/ml,50 units/ml,"< 0,78 units/ml",25 units/ml,"12,5 units/ml","12,5 units/ml",100 units/ml,"6,25 units/ml",25 units/ml,100 units/ml,100 units/ml,100 units/ml,–
